Measurements taken from PubChem BioAssay AID192 (DTP/NCI, 2004).
Values joined by “and” are separate entries in the source; they are usually repeats but may differ in a detail not shown here. Identical values can stand only once. Toxic doses and inconclusive results are not listed. How the source made its calls: active means survival T/C of 150% or more; inactive means T/C below 125% in these data. Peptide text beside a SMILES is read from it. * marks the point of attachment. Cbz = O=C(OCc1ccccc1)*

Tested on: BDF1 mice, B16 melanoma ip, median survival T/C
Experiment: NCI In Vivo Anticancer Drug Screen. Data for tumor model B16 Melanoma (intraperitoneal) in B6D2F1 (BDF1) mice
Details: endpoint: median survival time, higher = longer survival
In short: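 In this screen, activity was judged from survival or tumor size in treated versus vehicle-treated tumor-bearing mice, reported as T/C.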

[1] = dose: 3.12 mg/kg/injection, schedule: Q01DX009 (ip), vehicle: saline with Tween-80
[2] = dose: 6.25 mg/kg/injection, schedule: Q01DX009 (ip), vehicle: saline with Tween-80
[3] = dose: 12.5 mg/kg/injection, schedule: Q01DX009 (ip), vehicle: saline with Tween-80
[4] = dose: 25.0 mg/kg/injection, schedule: Q01DX009 (ip), vehicle: saline with Tween-80
[5] = dose: 50.0 mg/kg/injection, schedule: Q01DX009 (ip), vehicle: saline with Tween-80
[6] = dose: 100.0 mg/kg/injection, schedule: Q01DX009 (ip), vehicle: saline with Tween-80
[7] = dose: 200.0 mg/kg/injection, schedule: Q01DX009 (ip), vehicle: saline with Tween-80
[8] = dose: 12.5 mg/kg/injection, schedule: Q01DX009 (ip), vehicle: saline
[9] = dose: 100.0 mg/kg/injection, schedule: Q01DX009 (ip), vehicle: Klucel (hydroxypropylcellulose) (HPC)
[10] = dose: 200.0 mg/kg/injection, schedule: Q01DX009 (ip), vehicle: Klucel (hydroxypropylcellulose) (HPC)
[11] = dose: 400.0 mg/kg/injection, schedule: Q01DX009 (ip), vehicle: Klucel (hydroxypropylcellulose) (HPC)
[12] = dose: 100.0 mg/kg/injection, schedule: Q01DX009 (ip), vehicle: saline
[13] = dose: 200.0 mg/kg/injection, schedule: Q01DX009 (ip), vehicle: saline

Measured: T/C

NC(=O)C(Cc1ccccc1)NC(=O)C(Cc1ccccc1)NC(=O)C(Cc1ccccc1)NC(=O)OCc1ccccc1 (stereo not drawn) (Cbz-Phe-Phe-Phe-NH2; configuration not given here)
inactive: [1] 100 % of control | [2] 89 % of control | [3] 96 % of control | [4] 91 % of control

CCC[CH2][Sn]1([CH2]CCC)[N](S(=O)(=O)c2ccc(C)cc2)c2ccccc2[N]1S(=O)(=O)c1ccc(C)cc1
inactive: dose: 1.5 mg/kg/injection, schedule: Q01DX009 (ip), vehicle: Klucel (hydroxypropylcellulose) (HPC) 87 % of control | dose: 3.0 mg/kg/injection, schedule: Q01DX009 (ip), vehicle: Klucel (hydroxypropylcellulose) (HPC) 102 % of control

S=C(Cc1ccccc1)N1CCN(c2ccc(Cl)cc2)CC1
inactive: [5] 100 % of control | [6] 99 % of control | [7] 93 % of control

Cc1c(Cl)cccc1NC(=O)c1cccc([N+](=O)[O-])c1
inactive: dose: 75.0 mg/kg/injection, schedule: Q01DX009 (ip), vehicle: Klucel (hydroxypropylcellulose) (HPC) 95 % of control | dose: 150.0 mg/kg/injection, schedule: Q01DX009 (ip), vehicle: Klucel (hydroxypropylcellulose) (HPC) 87 % of control | dose: 300.0 mg/kg/injection, schedule: Q01DX009 (ip), vehicle: Klucel (hydroxypropylcellulose) (HPC) 91 % of control

CCCCOc1ccc(NC(N)=Nc2ccc(Cl)cc2)cc1
inactive: [1] 95 % of control | [2] 88 % of control | [3] 90 % of control | [4] 86 % of control

Cc1cc(-c2ccc(N=Nc3ccc4c(S(=O)(=O)O)cc(S(=O)(=O)O)c(N)c4c3O)c(C)c2)ccc1N=Nc1ccc2c(S(=O)(=O)O)cc(S(=O)(=O)O)c(N)c2c1O
inactive: [8] 121 % of control

CCCCC(NC(=O)OC(C)(C)C)C(=O)O (centres undefined)
inactive: [9] 114 % of control | [10] 104 % of control | [11] 100 % of control

CC(=N/NC(N)=S)/C(C)=N/NC(N)=S
inactive: [12] 118 % of control | [13] 97 % of control

Cc1cnc2c(NC(=O)CCl)nn(C)c2n1
inactive: dose: 50.0 mg/kg/injection, schedule: Q01DX009 (ip), vehicle: Klucel (hydroxypropylcellulose) (HPC) 103 % of control | [9] 101 % of control

O=C1c2cccc3cc([N+](=O)[O-])cc(c23)C(=O)N1CCN1CCCC1
inactive: dose: 1.56 mg/kg/injection, schedule: Q01DX009 (ip), vehicle: saline with Tween-80 109 % of control | [1] 110 % of control and 111 % of control | [2] 91 % of control and 118 % of control | [4] 110 % of control

COc1cc(C=Nc2ccc(-n3ccnc3C)cc2)ccc1N(CCCl)CCCl
inactive: dose: 2.5 mg/kg/injection, schedule: Q01DX009 (ip), vehicle: Klucel (hydroxypropylcellulose) (HPC) 105 % of control

CC(=O)N(C)O
inactive: [4] 98 % of control | [5] 107 % of control | [6] 101 % of control | [7] 103 % of control

Cc1cc2nc(CN)[nH]c2cc1C
inactive: [5] 110 % of control | [6] 97 % of control | [7] 97 % of control

O=C(O)[C@@H]1[C@H](C(=O)O)[C@H](C(=O)O)C[C@@H]1C(=O)O
inactive: [12] 102 % of control | [13] 94 % of control | dose: 400.0 mg/kg/injection, schedule: Q01DX009 (ip), vehicle: saline 96 % of control

NC(=S)N/N=C\c1ncnc2ccccc12
inactive: dose: 6.25 mg/kg/injection, schedule: Q01DX009 (ip), vehicle: Klucel (hydroxypropylcellulose) (HPC) 124 % of control

S=c1nc[nH]c2nc[nH]c12.[Ag]
inactive: dose: 300.0 mg/kg/injection, schedule: Q01DX009 (ip), vehicle: carboxymethylcellulose (CMC) 118 % of control

COc1ccccc1NC(=O)Nc1cc(C)cc(C)n1
inactive: [6] 94 % of control | [7] 94 % of control | dose: 400.0 mg/kg/injection, schedule: Q01DX009 (ip), vehicle: saline with Tween-80 89 % of control

O=C(Nc1ccccc1C(=O)O)c1cc([N+](=O)[O-])cc([N+](=O)[O-])c1
inactive: [3] 98 % of control | [4] 101 % of control | [5] 111 % of control | [6] 95 % of control | [7] 87 % of control

COc1cccc(CN2CCCNCC2)c1
inactive: dose: 6.25 mg/kg/injection, schedule: Q01DX009 (ip), vehicle: water 102 % of control | dose: 12.5 mg/kg/injection, schedule: Q01DX009 (ip), vehicle: water 115 % of control | dose: 25.0 mg/kg/injection, schedule: Q01DX009 (ip), vehicle: water 114 % of control | dose: 50.0 mg/kg/injection, schedule: Q01DX009 (ip), vehicle: water 100 % of control

CN(C)CCCNC(=S)S
inactive: dose: 6.25 mg/kg/injection, schedule: Q01DX009 (ip), vehicle: saline 100 % of control | [8] 97 % of control | dose: 12.5 mg/kg/injection, schedule: Q04DX003 (ip), vehicle: saline 111 % of control | dose: 25.0 mg/kg/injection, schedule: Q01DX009 (ip), vehicle: saline 110 % of control | dose: 25.0 mg/kg/injection, schedule: Q04DX003 (ip), vehicle: saline 111 % of control | dose: 50.0 mg/kg/injection, schedule: Q04DX003 (ip), vehicle: saline 94 % of control

C=C(C)C1C2CC3(C)C4(CO4)C4OC4C3(O)C1C(=O)O2 (centres undefined)
inactive: dose: 0.07 mg/kg/injection, schedule: Q01DX009 (ip), vehicle: Klucel (hydroxypropylcellulose) (HPC) 102 % of control | dose: 0.15 mg/kg/injection, schedule: Q01DX009 (ip), vehicle: Klucel (hydroxypropylcellulose) (HPC) 104 % of control | dose: 0.3 mg/kg/injection, schedule: Q01DX009 (ip), vehicle: Klucel (hydroxypropylcellulose) (HPC) 106 % of control | dose: 0.6 mg/kg/injection, schedule: Q01DX009 (ip), vehicle: Klucel (hydroxypropylcellulose) (HPC) 98 % of control | dose: 1.2 mg/kg/injection, schedule: Q01DX009 (ip), vehicle: Klucel (hydroxypropylcellulose) (HPC) 101 % of control

COC1=C2CC(C)CC(OC)C(O)C(C)/C=C(\C)C(OC(N)=O)C(OC)/C=C\C=C(/C)C(=O)NC(=C(/C=N/N3CCOCC3)C1=O)C2=O (centres undefined)
inactive: dose: 12.5 mg/kg/injection, schedule: Q01DX005 (ip), vehicle: other 106 % of control | dose: 25.0 mg/kg/injection, schedule: Q01DX005 (ip), vehicle: other 97 % of control | dose: 100.0 mg/kg/injection, schedule: Q01DX005 (ip), vehicle: other 106 % of control | dose: 200.0 mg/kg/injection, schedule: Q01DX005 (ip), vehicle: other 89 % of control

[Cl][Pt+2][Cl].[NH-]c1cc2ccccc2cc1[NH-]
inactive: dose: 20.0 mg/kg/injection, schedule: Q01DX009 (ip), vehicle: saline with Tween-80 113 % of control | dose: 40.0 mg/kg/injection, schedule: Q01DX009 (ip), vehicle: saline with Tween-80 122 % of control | dose: 80.0 mg/kg/injection, schedule: Q01DX009 (ip), vehicle: saline with Tween-80 120 % of control | dose: 160.0 mg/kg/injection, schedule: Q01DX009 (ip), vehicle: saline with Tween-80 87 % of control | dose: 320.0 mg/kg/injection, schedule: Q01DX009 (ip), vehicle: saline with Tween-80 118 % of control

COc1cccc(C(=O)C(CCC#N)c2ccccc2)c1 (centres undefined)
inactive: [9] 103 % of control | [10] 96 % of control | [11] 103 % of control

Cc1cc(C)cc(-n2nnc3ccccc3c2=O)c1
inactive: [9] 108 % of control | dose: 100.0 mg/kg/injection, schedule: Q04DX003 (ip), vehicle: Klucel (hydroxypropylcellulose) (HPC) 95 % of control | [10] 100 % of control | dose: 200.0 mg/kg/injection, schedule: Q04DX003 (ip), vehicle: Klucel (hydroxypropylcellulose) (HPC) 91 % of control | [11] 86 % of control | dose: 400.0 mg/kg/injection, schedule: Q04DX003 (ip), vehicle: Klucel (hydroxypropylcellulose) (HPC) 93 % of control

Cn1c(=O)[nH]c2nncnc2c1=O
inactive: dose: 0.37 mg/kg/injection, schedule: Q01DX009 (ip), vehicle: water 99 % of control | dose: 0.75 mg/kg/injection, schedule: Q01DX009 (ip), vehicle: water 118 % of control | dose: 1.5 mg/kg/injection, schedule: Q01DX009 (ip), vehicle: water 103 % of control | dose: 3.0 mg/kg/injection, schedule: Q01DX009 (ip), vehicle: water 99 % of control

NC(=O)c1cc(N2CC2)c([N+](=O)[O-])cc1[N+](=O)[O-]
inactive: dose: 5.0 mg/kg/injection, schedule: Q01DX009 (ip), vehicle: saline 104 % of control | dose: 10.0 mg/kg/injection, schedule: Q01DX009 (ip), vehicle: saline 109 % of control | dose: 20.0 mg/kg/injection, schedule: Q01DX009 (ip), vehicle: saline 95 % of control
